From patent US20040166509A1, “Detecting hormonally active compounds” (priority 2002, published 2004)

Tests used:
[1] = tested on: hepatic mRNA of adult male SHMs; experiment: SHM cDNA macroarray (30 genes): hepatic gene expression profiles of exposed fish; assay type: in vivo, sheepshead minnow (SHM); settings: adult male SHM liver, aqueous E2 65.14 ng/L 5 d, vs untreated control
[2] = tested on: hepatic mRNA of adult male SHMs; experiment: SHM estrogen responsive macroarray (54 cDNA clones), E2 exposure; assay type: in vivo, sheepshead minnow (SHM); settings: adult male SHM liver; aqueous 100 ng/L E2 in TEG, 5 days; vs TEG control
Procedure: Total hepatic mRNA was extracted from 5 adult male SHMs treated by aqueous exposure to 100 ng/L of E2 dissolved in triethylene glycol (TEG) for 5 days. Minipreps of 54 cDNA clones derived from DD analysis were PCR amplified using primers specific to the M13 sequence of the cloning vector (pGEMT-Easy, Promega, Madison,Wis.). After the PCR reactions the products were purified in spin-columns (Qiagen, Chatsworth, Calif.) and then concentrated in a speed-vac. The cDNA samples were denatured with NaOH, heated to 65° C. for 10 min, and then immediately quenched on ice. 20×SSC (3M NaCl, 0.3M sodium citrate, pH 7.0) that contained 0.01 mM bromophenol blue was then added to the samples to yield a final concentration of 0.3M NaOH, 6×SSC, and 100 ng/μL cDNA template. The samples were then robotically spotted (Biomek 2000, Beckman Coulter, Fullerton, Calif.) in duplicate onto neutral nylon membranes (Fisher Scientific, Pittsburgh, Pa.) using 100 nL pins. The membranes were UV cross-linked and then stored under vacuum at room temperature until hybridized. Various controls, which provided information about the cDNA labeling efficiency, blocking, and non-specific binding of the arrays, were also spotted onto the membranes. These controls included: 3 Arabidopsis thaliana cDNA clones, Cot-1 repetitive sequences, poly A sequence (SpotReport 3, Stratagene, La Jolla, Calif.), and a M13 sequence (vector but no cDNA insert). Labeling of RNA probes and hybridization of blots was performed as described in Example 1.
FIGS. 4A and 4B contain blots of control (TEG-treated) and E2-treated fish, respectively. FIG. 4C is a plot of the mean intensity values. Genes on the macroarray were designated as constitutive genes if their intensity values fell within the range of the highest (1.27) and lowest (0.83) value of the 17 cDNA clones that were used to normalize the data.

hepatic RNA of LMB = experiment: LMB gene array (132 genes): hepatic gene expression after IP injection; assay type: in vivo, largemouth bass (LMB); settings: male LMB liver, two-fold cutoff vs control
[3] = tested on: LMB genes (ER alpha, ER gamma, StAR); parameters: species or system largemouth bass (LMB); settings: Table II, test not stated
[4] = EE2 109 ng/L 4 d, DES 100 ng/L 4 d, pNP 11.81 μg/L 5 d, MXC 5.59 μg/L 13 d, ES 590.3 ng/L

| SMILES | ER α expression [1, 4] | Vtg α expression [1, 4] | Vtg β expression [1] | alpha-1-microglobulin/bikunin precursor protein expression [1] | beta actin expression [1] | choriogenin 2 expression [1] | choriogenin 3 expression [1] | coagulation factor XI expression [1] | transferrin expression [1] | choriogenic protein (ZP2) expression [2] | transferrin expression [2] | vitellogenin α expression [2] | vitellogenin β expression [2] | clone 132-2 expression (hepatic RNA of LMB; 48 h after single IP E2 2.5 mg/kg) | four Vtg genes expression (hepatic RNA of LMB; 48 h after single IP dose: E2 2.5 mg/kg or 4-NP 50 mg/kg) | LMB_STAR STAR PROTEIN differentially expressed by [3] |
| --- | --- | --- | --- | --- | --- | --- | --- | --- | --- | --- | --- | --- | --- | --- | --- | --- |
| C[C@]12CC[C@@H]3c4ccc(O)cc4CC[C@H]3[C@@H]1CC[C@@H]2O [E2, estradiol] | up-regulated (any cDNA clones in the macroarray experiments above a ˜1.66-fold induction were designated as up-regulated genes) | up-regulated (any cDNA clones in the macroarray experiments above a ˜1.66-fold induction were designated as up-regulated genes) | up-regulated (any cDNA clones in the macroarray experiments above a ˜1.66-fold induction were designated as up-regulated genes) | down-regulated (any cDNA clones that had a value below ˜0.42 were designated as down-regulated) | down-regulated (any cDNA clones that had a value below ˜0.42 were designated as down-regulated) | up-regulated (any cDNA clones in the macroarray experiments above a ˜1.66-fold induction were designated as up-regulated genes) | up-regulated (any cDNA clones in the macroarray experiments above a ˜1.66-fold induction were designated as up-regulated genes) | up-regulated (any cDNA clones in the macroarray experiments above a ˜1.66-fold induction were designated as up-regulated genes) | down-regulated (any cDNA clones that had a value below ˜0.42 were designated as down-regulated) | up-regulated (intensity value above ˜1.27 was designated an E2 up-regulated gene) | down-regulated (a value below ˜0.83 was designated an E2 down-regulated gene) | up-regulated (intensity value above ˜1.27 was designated an E2 up-regulated gene) | up-regulated (intensity value above ˜1.27 was designated an E2 up-regulated gene) | up-regulated (only genes that exhibit a two-fold or greater change in expression were considered to be differentially regulated) | up-regulated (only genes that exhibit a two-fold or greater change in expression were considered to be differentially regulated) | – |
| CC[C@H](CC[C@@H](C)[C@H]1CC[C@H]2[C@@H]3CC=C4C[C@@H](O)CC[C@]4(C)[C@H]3CC[C@]12C)C(C)C [b-sitosterol] | – | – | – | – | – | – | – | – | – | – | – | – | – | – | – | dn-reg b- |
